Source: a melting point compilation (Tetko et al.; mined from patent text by program, amines drawn as free bases though some values may be those of a salt)

| Compound | melting point |
| --- | --- |
| CC1(N)CN(c2cc3c(cc2F)c(=O)c(C(=O)O)cn3-c2ccc(F)cc2)C1 | 270 to 276 °C |
| NCCCCCCNc1nsc2nccn12 | 81 to 82 °C |
| O=C1NC(O)c2c1c1c3ccccc3[nH]c1c1[nH]c3ccccc3c21 (stereo not drawn) | > 300 °C |
| O=C(O)c1ccc(-c2cccc(C(=O)O)c2)cc1 | > 250 °C |
| Brc1ccc2c(Br)c3cc(Br)ccc3c(Br)c2c1 | 293 to 296 °C |
| C=C1CC2(C)C(O)CCC2C2C(C)CC3=CC(=O)CCC3C12 (stereo not drawn) | 138 to 139 °C |
| O=C1CCN(C2(OCCOc3ccccc3)OCCO2)CC1 | 105 to 106 °C |
| COc1cc(C2C3=C(COC3=O)N(c3cc(OC)c(OC)c(OC)c3)c3cc4c(cc32)OCO4)cc(OC)c1OC (stereo not drawn) | > 260 °C |
| C[C@@H](O)[C@@H](OCc1ccccc1)[C@H](OCc1ccccc1)[C@@H](C)O | 46 to 50 °C |
| CCCCCCCC[C@H](C(=S)Nc1c(SC)ccc2ncccc12)c1ccccc1 | 126 to 128 °C |
| O=C(c1cc2cc([N+](=O)[O-])ccc2o1)C12CC3CC(CC(C3)C1)C2 | 151 to 153 °C |
| O=C(O)C12CC=CCC1CSc1ccccc12 (stereo not drawn) | 152 to 155 °C |
| O=C(NC/C=C/c1ccccc1)c1ccoc1 | 115 °C |
| CN1CC2(OCCO2)c2ccc3ccccc3c2S1(=O)=O | 169 to 171 °C |
| NC(=O)c1cc(Cl)c(Sc2ccc(Cl)cc2)c(Cl)c1 | 171 to 174 °C |
| O=C(c1ccccc1)c1[nH]c2cc(Cl)ccc2c1NC(=O)N1CCOCC1 | 168 to 170 °C |
| CC(C)P1(=O)c2ccccc2CN1C(C)(C)C (stereo not drawn) | 67 to 70 °C |
| Cc1nc2sccn2c1-c1ccc(C#N)cc1 | 88 to 91 °C |
| C=CCn1cccc1C(N)=S | 80.5 to 83 °C |
| NS(=O)(=O)Oc1ccc(C(=O)c2ccc(OS(N)(=O)=O)cc2)cc1 | 182 to 185 °C |
| O=C1NC(=S)S/C1=C\c1ccccc1Nc1cccc(C(F)(F)F)c1 | 234 to 236 °C |
| Cc1ccc(-c2ccc(S(C)(=O)=O)cc2)n1-c1ccc(-c2ccoc2)c(Cl)c1 | 165 to 168 °C |
| O=C(NCc1ccc(Cl)cc1)c1cn(C2CC2)c2oc(CCl)cc2c1=O | 174 to 176 °C |
| FC1(F)c2ccccc2C(F)(F)C(F)(F)c2ccccc21 | 53 to 55 °C |
| CSC(C(N)=O)c1ccccc1N (stereo not drawn) | 98.5 to 99.5 °C |
| CC(C)OC(=O)C=CC1C(C(=O)O)C1(C)C (stereo not drawn) | 98 °C |
| CC(C)(C)C1C(=O)NN=C2CCCCC21 (stereo not drawn) | 161 to 164 °C |

| Compound | melting point |
| --- | --- |
| CCNCC1CCN(c2c(F)cc3c(=O)c(C(=O)O)cn(-c4ccc(F)cc4)c3c2F)C1 (stereo not drawn) | 249 to 251 °C |
| CC(O)=C(C(=O)OCc1ccc([N+](=O)[O-])cc1)N1C(=O)C(NC(=O)COc2ccccc2)C1SS(=O)(=O)c1ccc(C)cc1 (stereo not drawn) | 159 to 160 °C |
| O=c1c(Cl)c(Cl)cnn1-c1ccc(Cl)cc1F | 158 °C |
| CCN1C(=O)SC(=Cc2ccc([N+](=O)[O-])cc2)C1=O | 217 to 218 °C |
| CCCCCC(O)C1C(=O)NC(C(=O)SCCNC(C)=O)(C(O)C2C=CCCC2)C1(C)O (stereo not drawn) | 80 °C |
| COC1CCN(S(=O)(=O)c2ccc(S(N)(=O)=O)cc2)CC1 | 153 to 154 °C |
| Fc1ccc(/C=C/c2nc(COc3cccc(CCCn4ccnn4)c3)co2)cc1 | 105 to 106 °C |
| O=C1CC(=O)CC2(CCOCC2)C1 | 162 to 164 °C |
| CCCCCCCCCCCCCCCCCCC(N)C(N)=O (stereo not drawn) | 103 to 104 °C |
| CCP(CC)c1ccc(Cl)cc1 | 77 to 79 °C |
| Oc1cc(O)n2nc(-c3ccc(F)cc3)c(-c3ccncc3)c2n1 | > 250 °C |
| COc1cc(OP(=O)(OC)OC)c(C(=O)c2ccccc2)s1 | 76 °C |
| Cc1cccc(C)c1NC(=O)CC1CCN(CCC2CCOc3ccccc32)CC1 (stereo not drawn) | 136 °C |
| Cc1nc2ccc3c(c2nc1C)OC(CN1CC=C(c2c[nH]c4ccccc24)CC1)CO3 (stereo not drawn) | 153 to 155 °C |
| CC(C)(COc1c(-c2ccccc2)c(=O)oc2ccccc12)CN1CCOCC1 | 167 °C |
| CCN(CC)CCNC(=O)c1cccc2c(=O)c3c(I)cccc3[nH]c12 | 144 to 146 °C |
| Fc1ccc(C(CCCN2CCC(c3n[nH]c4ccccc34)CC2)c2ccc(F)cc2)cc1 | 154 to 156 °C |
| Cn1c(C(F)(F)F)cc(=O)n(Nc2cccc(Cl)c2Cl)c1=O | 179 °C |
| O=C(C=NO)c1cccc(Cl)c1Cl | 109 °C |
| Nc1nnc(SCCCCc2ccccc2)s1 | 111 °C |
| O=C1C(c2ccccc2)=C(c2ccccc2)C(=O)N1c1cccc(F)c1 | 157 to 158 °C |
| Cc1c(Sc2ccc(Cl)cc2)nn(-c2ccc(O)cc2)c(=O)c1C#N | 261 to 263 °C |
| COC(=O)c1nccn1C(c1ccccc1)(c1ccccc1)c1ccccc1 | 186 to 188 °C |
| CC(C)(C)N(NC(=S)c1ccc(Cl)cc1)C(=O)c1ccccc1 | 160 to 162 °C |
| CC(C)NCC(O)COc1ccc(-c2oc3ccccc3c2C(=O)c2ccccc2)cc1 (stereo not drawn) | 53 to 59 °C |
| COC(=O)c1ccc(CC(C)NCC(O)c2ccccc2)c(OC)c1 (stereo not drawn) | 102 to 104 °C |

The next lines start with the values.

| melting point | Compound |
| --- | --- |
| 186 to 187 °C | CC(C)(O)C1Cc2cc3ccc(=O)oc3cc2O1 (stereo not drawn) |
| 117 °C | CCCOc1cc(OC)cc(O)c1C(=O)C=Cc1ccc(OC)cc1 |
| 180 to 181 °C | Cc1cc(C2CCN(S(=O)(=O)C3(C(=O)NO)CCN(C(=O)OC(C)(C)C)CC3)CC2)ccc1-c1cccc(OCCO)n1 |
| 179 to 180 °C | CC(Sc1nc(N)cc(Cl)n1)c1nccc2ccccc12 (stereo not drawn) |
| 83 °C | COP(=O)(OC)c1cc(Oc2ccc(C(F)(F)F)cc2Cl)ccc1[N+](=O)[O-] |
| 201 to 207 °C | Cn1nnnc1SCC1c2cc(O)c(O)cc2CCN1C(=O)OCC(Cl)(Cl)Cl (stereo not drawn) |
| 98 to 99 °C | COC(=O)c1cccc2c(I)c(OC)ccc12 |
| 106 °C | COCCNc1cc(NCCOC)c([N+](=O)[O-])cc1Cl |
| 266 °C | CC(C)(C)c1ccc2ncc(C(=O)NCc3ccc(Cl)cc3)c(O)c2c1 |
| 180 to 184 °C | COC(=O)c1cccc(-c2ccnc3c(C(=O)c4cccs4)cnn23)c1 |
| 155 to 157 °C | Cc1ccc2oc(NC(CN3CCN(Cc4ccc(Cl)c(Cl)c4)CC3)C(C)C)nc2c1 (stereo not drawn) |
| 164 to 165 °C | CC(C)(C)c1cc(C(=O)COc2ccc(C(=O)O)c(O)c2)cc(C(C)(C)C)c1O |
| 129 to 132 °C | COc1ccc(S(=O)(=O)N(CCN2CCC(C(=O)c3ccc(F)cc3)CC2)c2cccc(OC)c2)cc1 |
| 56.5 to 58 °C | CN(C)CCOC(=O)c1cccc2cc(-c3ccccc3)oc12 |
| 123 to 124 °C | CCCCC[C@@H](CNC(=O)Nc1c(OC(C)C)c(C)nn1C)c1cccc2c1OCO2 |
| 138 to 140 °C | CCOc1ccc(-c2nc(-c3ccc(OC4OC(CO)C(O)C(O)C4O)cc3)cs2)cc1OCC (stereo not drawn) |
| 143 to 144 °C | CC(C)(C)c1cc(Cc2ccc(Cl)nn2)c(O)c(C(C)(C)C)c1 |
| 181 to 182 °C | CCOC(=O)Nc1ccc2c(c1)CCC2=O |
| 82 to 84 °C | O=C(NCc1ccc(Br)cc1F)OCc1ccccc1 |
| 183 to 185 °C | CC(=O)Oc1cc(C=CC(=O)c2ccccc2)cc([N+](=O)[O-])c1OC(C)=O |
| 113 to 114 °C | COc1ccc2c(C)c(CCO)c(=O)oc2c1OC |
| 154 to 156 °C | Cc1ccc(N)c(OCCOc2cc(C(=O)OC(C)(C)C)ccc2N)c1 |
| 164 to 165 °C | CCC(=O)Nc1ccc2oc3c(c2c1)CCCC3 |
| 248 to 249 °C | CC(C)NC(=O)Cn1c(-c2ccc(Cl)cc2)nc2cccnc21 |
| 254 to 255 °C | COc1ccc2c(c1)c(-c1cc3c(-c4c(C)noc4C)ccnc3[nH]1)cn2C |

| melting point | Compound |
| --- | --- |
| > 250 °C | Cc1ccc(-c2[nH]c(-c3ccncc3)nc2C(=O)Nc2nccs2)cc1 |
| 56 to 57 °C | COC(=O)Cc1ccc(C(=O)OC)cn1 |
| 196 to 198 °C | COC(=O)C1=C(C#N)NC(C)=C(C(=O)OCC(C)C)C1c1ccccc1C#N (stereo not drawn) |
| 117 to 118 °C | COc1ccc(C(=O)c2ccc3cc(OC)ccc3c2)c(ON=C(C)C)c1 |
| 137 to 138 °C | CC(=O)C(=Cc1ccc2c(c1)OCO2)C(=O)OCc1ccccc1 |
| 110 to 112 °C | Cc1nc(-c2ccc(OCCCn3ccnc3)cc2)no1 |
| 63.5 to 65 °C | COC(=O)Cc1cc(Br)c(S)c(Br)c1 |
| 206 to 208 °C | COC(=O)N1CC(=O)N(C)c2ccc(F)cc21 |
| 100 to 101 °C | COC(=O)c1ccc(OC)c(O)c1O |
| 123 °C | COC(=O)c1ccc(Cc2cc3cc(C(F)(F)F)ccc3n2S(=O)(=O)c2ccc(C(C)C)cc2)cc1 |
| 138 to 140 °C | CCOC(=O)c1cnc2[nH]c(-c3cc(OCc4ccccc4)ccc3OC(C)C)nc2c1 |
| 55 °C | CSc1cncc(Oc2ccc(Cl)c(Cl)c2)c1 |
| 202 to 203 °C | COCC1(C)CCOc2ccc(C#Cc3ccc(C(=O)O)cc3)cc21 (stereo not drawn) |
| 42 to 43 °C | Cc1c(N(C)C)ccc([N+](=O)[O-])c1CO |
| 140 to 141 °C | O=C(NCCc1cccc2ccc(O)cc12)C1CC1 |
| 160 to 163 °C | COc1ccc(N2C(=O)[C@H](O)[C@@H]2CC(C)C)cc1 |
| 137 to 139 °C | OCC(CO)c1nc(NCc2ccccn2)c2c(-c3ccccc3)csc2n1 |
| 218 to 220 °C | COc1ccc(C(=O)Nc2ccc(F)cc2)cc1NC(=S)Nc1cccc(C(=O)O)c1 |
| > 300 °C | O=[N+]([O-])c1cccc2c(Br)cc3nc(O)c(O)nc3c12 |
| 97 to 100 °C | CCOC(=O)COc1ccc(SCCc2cccc3sc(-c4ccc(C(F)(F)F)cc4)nc23)cc1C |
| 117 to 118 °C | COC(=O)CCON1C(C)(C)CC(OC(=O)c2ccccc2C(=O)OC2CC(C)(C)N(OCCC(=O)OC)C(C)(C)C2)CC1(C)C |
| 85 to 87 °C | CCC(=O)NCC[C@@H]1CCc2cc(Br)c(O)c(CCO)c21 |
| 91 to 95 °C | COC(=N)Nc1nc(OC)cc(OC)n1 |
| 190 to 191 °C | COc1ccc(N2CCN(S(=O)(=O)[C@H](C)[C@](O)(Cn3cncn3)c3ccc(F)cc3F)CC2)cc1 |
| 158 to 160 °C | CC(C)(C)c1nc(C=C2CCOC2=O)nc(C(C)(C)C)c1O |
